Results as given in paper PMC10747599 (Viruses, 2023).

Assays:
Huh-7 cells = assay: MTT cell viability assay, Huh-7; conditions: Huh-7, 48 h; for loss/reduction in cell viability vs vehicle-treated cells: 20 µM
SLEV [1] = assay: Viral load by plaque-forming assay, SLEV-infected Huh-7; format: cell-based, St. Louis encephalitis virus (SLEV BeH 355964); conditions: Huh-7, MOI 0.1, 48 h
[2] = system: SLEV infection in Vero CCL81 cells; assay: microbe, parasite or virus in culture; format: cell-based, St. Louis encephalitis virus (SLEV BeH 355964); conditions: for EC50: St. Louis encephalitis virus, 72 h
SLEV [3] = assay: Viral load by plaque-forming assay, SLEV-infected Vero CCL81; format: cell-based, St. Louis encephalitis virus (SLEV BeH 355964); conditions: Vero CCL81, MOI 0.1
[4] = Confirmatory dose-response assay, cytotoxicity (CC50); conditions: African green monkey, Vero CCL81 cells
Vero CCL81 cells [5] = assay: as above; conditions: Vero CCL81, dose-response 100 to 0.32 µM
Vero CCL81 cells [6] = assay: MTT cell viability assay, Vero CCL81
[7] = system: SLEV infection in Vero CCL81 cells; format: cell-based, St. Louis encephalitis virus (SLEV BeH 355964); conditions: 20 µM
SLEV [8] = assay: Viral load by plaque-forming assay, SLEV-infected HBEC-5i; format: cell-based, St. Louis encephalitis virus (SLEV BeH 355964)
HBEC-5i cells = assay: MTT cell viability assay, HBEC-5i; conditions: HBEC-5i; for reduction in cell viability / toxicity: 20 µM, 48 h; for toxicity at lower concentrations: 20 µM to 2.5 µM, MOI 0.1, 48 h (Figure 5)
[9] = MTT cell viability assay, HBEC-5i; conditions: human, HBEC-5i cells

SMILES | EC50 [2] | CC50 at 72 h [4] | CC50 (Vero CCL81 cells [5]) | loss/reduction in cell viability vs vehicle-treated cells (Huh-7 cells) | inhibition of SLEV-induced CPE (hit call, cytoprotective effect) [7] | reduction in viral titers in culture supernatant (SLEV [8]; 20 µM, MOI 0.1, 48 h) | reduction in cell viability / toxicity (HBEC-5i cells) | further results
C[C@@]1(O)[C@H](O)[C@@H](CO)O[C@H]1n1ccc2c(N)ncnc21 [7DMA, 7-deaza-2′-C-methyl-D-adenosine] | 5.1 µM | > 100 µM | least cytotoxic | – | – | – | – | reduction in cell viability vs vehicle-treated cells (Huh-7 cells; 40 µM (7DMA)): approx. 10%; reduction in viral load (SLEV [1]; 40 µM (7DMA)): 10 fold; reduction in viral load relative to vehicle-treated controls (SLEV [3]; 40 µM (7DMA)): approximately 10 fold; reduction in cell viability (Vero CCL81 cells [6]; 40 µM (7DMA), Vero CCL81): less than 10%
C[C@@H]1CCCN1CCc1cc2cc(-c3ccc(C#N)cc3)ccc2o1 [ABT-239, 4-(2-{2-[(2R)-2-Methylpyrrolidinyl]ethyl}-benzofuran-5-yl)benzonitrile] | 3.4 µM | 80.2 µM | – | approx. 10% | cytoprotective effect | approx. 10 fold | not toxic | reduction in viral load relative to vehicle-treated controls (SLEV [3]; 20 µM): approximately 10 fold
CCCCc1oc2ccccc2c1C(=O)c1cc(I)c(OCCN(CC)CC)c(I)c1 [Amiodarone] | – | – | – | approx. 10% | cytoprotective effect | over 10 fold | – | reduction in viral load (SLEV [1]; 20 µM): not significant
OCCN1CCN(CCCN2c3ccccc3Sc3ccc(C(F)(F)F)cc32)CC1 [Fluphenazine] | – | 30.2 µM | – | 90% | cytoprotective effect | > 100 fold | not toxic | reduction in viral load (SLEV [8]; 20 µM, MOI 0.1, 48 h, concentration series (Figure 5)): over 50 fold; toxicity at lower concentrations (HBEC-5i cells): not toxic
FC(F)(F)c1ccc(CNc2ccc(Cc3c[nH]c4ncc(Cl)cc34)cn2)cn1 [Pexidartanib] | – | – | – | – | cytoprotective effect | – | – | –
CC[C@@H]([C@H](C)O)n1ncn(-c2ccc(N3CCN(c4ccc(OC[C@@H]5CO[C@@](Cn6cncn6)(c6ccc(F)cc6F)C5)cc4)CC3)cc2)c1=O [Posaconazole] | 0.4 µM | > 100 µM | least cytotoxic | 50% | cytoprotective effect | – | approximately 70% | Selectivity Index (SI, CC50/EC50 ratio) ([2]; Vero CCL81): ≥ 12; reduction in cell viability (Vero CCL81 cells [6]; 20 µM, Vero CCL81, vs non-treated controls): 40%
NCCc1cn(S(=O)(=O)c2c(Cl)nc3sccn23)c2ccccc12 [SAX-187] | – | – | – | – | cytoprotective effect | – | – | –
CCN(CC)CCOc1ccc(C(O)(Cc2ccc(Cl)cc2)c2ccc(C)cc2)cc1 (stereo not shown) [Triparanol] | 0.9 µM | 18.5 µM | – | 90% | cytoprotective effect | – | ~60% | antiviral effect (viral load) (SLEV [8]; 2.5 µM, MOI 0.1, 48 h (Figure 5)): lost; antiviral effect (viral load) (SLEV [8]; 5 µM, MOI 0.1, 48 h (Figure 5)): lost; reduction in viral load vs vehicle-treated infected group (SLEV [8]; 10 µM, MOI 0.1, 48 h (Figure 5)): over 10 fold; toxicity at lower concentrations (HBEC-5i cells): not toxic
COc1cccc(-c2ccc(NC(=O)C3=C(C(=O)O)CCC3)c(F)c2)c1 [Vidofludimus] | 8.2 µM | > 100 µM | least cytotoxic | approx. 10% | cytoprotective effect | No antiviral activity | – | viability at 48 h, 20 µM [9]: ≤ 90%; reduction in viral load relative to vehicle-treated controls (SLEV [3]; 20 µM): approximately 10 fold
